Here are results for three compounds from patent US20190015335A1, “HEPATOPROTECTIVE PARTICLES AND SYSTEMS AND METHODS OF USE THEREOF” (South Dakota Board of Regents, priority 2017, published 2019).

For one data set, the system named is AML12 cells. The data set is described as follows: MTT assay of AML12 cell survival after doxorubicin. In kind it is cell-based, mouse. Conditions: FIG. 5. The method, then:
(§1) MTT assay was performed to quantify AML12 cell survival after 24-hour exposure to 10 μM doxorubicin (DOX). The cells were pretreated with SFN or with MIL-88A-SFN. Control cells include those incubated with DOX without pretreatment, those incubated with MIL-88A-SFN alone without incubation with DOX, and those incubated with phosphate buffered saline (PBS). The activities of caspases and CYP1A1/CYP1B1 of these cells were also measured.

For data set [1], the system named is caspase 3/7 and caspase 9 in AML12 cells. The data set is described as follows: Caspase 3/7 and caspase 9 activity in AML12 cells after doxorubicin. Format: cell-based, mouse. Conditions: FIG. 6. Here is the method:
as §1

In data set [2] the test system is CYP1A1/CYP1B1 in AML12 cells. The data set is described as follows: CYP1A1/CYP1B1 activity in AML12 cells after doxorubicin. Format: cell-based, mouse. The conditions noted are these: FIG. 7. The method, then: as §1
The next data set deals with B16F1 tumor. The data set is described as follows: Tumor volume in mice bearing B16F1 tumor, DOX with or without pretreatment. Format: in vivo. Conditions: DOX 10 mg per kg i.v. at day 1, with or without pretreatment, vs PBS only, FIG. 9.
Data set [3] relates to alanine aminotransferase (ALT) activity in blood serum. The data set is described as follows: ALT activity in blood serum of mice bearing B16F1 tumor (DOX). In kind it is in vivo. Here is the method: (§2) Mice bearing a B16F1 tumor were intravenously administered through the tail vein in different groups of eight: (1) pretreatment with 25 mg of MIL-88A-SFN per kg of mouse at day 0 (corresponding to 3 mg SFN per kg of mouse according to the loading capacity of SFN in MIL-88A), followed by DOX at day 1 at 10 mg per kg of mouse; (2) pretreatment with SFN at 3 mg per kg of mouse at day 0, followed by DOX at day 1 at 10 mg per kg of mouse; (3) PBS injected at day 0, followed by DOX at day 1 at 10 mg per kg of mouse; and (4) PBS injected at both day 0 and day 1. Liver and blood samples were collected and analyzed to identify liver damage and morphology.

For data set [4], the system named is caspase 3/7 in liver tissues. The data set is described as follows: Caspase 3/7 activity in liver tissues of mice bearing B16F1 tumor (DOX). Format: in vivo. The method, then: as §2
In data set [5] the test system is CYP1A1/CYP1B1 in liver tissues. The data set is described as follows: CYP1A1/CYP1B1 activity in liver tissues of mice bearing B16F1 tumor (DOX). In kind it is in vivo. Here is the method: as §2
Another data set deals with liver tissues. The data set is described as follows: Morphological microscopic analysis of liver tissues (DOX). In kind it is in vivo, mice. The method, then:
as §2

Data set [6] concerns alanine aminotransferase (ALT) activity in blood serum. The data set is described as follows: ALT activity in blood serum of mice bearing B16F1 tumor (DTIC). The conditions noted are these: DTIC 120 mg per kg, 4 cycles, FIG. 16. Format: in vivo. The method, then:
(§3) Mice bearing B16F1 tumor were intravenously administered through the tail vein in different groups of eight: (1) pretreatment with PLGA-SBN (corresponding to 10 mg SBN per kg of mouse), followed by dacarbazine (DTIC) on the next day at a dose of 120 mg per kg mouse; (2) pretreatment with SBN (10 mg per kg), followed by DTIC on the next day at a dose of 120 mg per kg mouse; (3) PBS, followed by DTIC on the next day at a dose of 120 mg per kg mouse; (4) pretreatment with plain PLGA and free (non-encapsulated) SBN (10 mg per kg of mouse), followed by PBS on the next day; and (5) PBS injected at both days (once per day). Liver and blood samples were collected and analyzed to identify liver damage and morphology.

A further data set concerns bilirubin in blood serum. The data set is described as follows: Bilirubin concentration in blood serum of mice bearing B16F1 tumor (DTIC). In kind it is in vivo. The conditions noted are these: DTIC 120 mg per kg, 4 cycles, FIG. 17. Here is the method:
as §3

Data set [7] has as its system caspase 3 in liver tissues. The data set is described as follows: Western blot of pro-caspase 3 and active caspase 3 in liver tissues (DTIC). Format: in vivo, mice. The conditions noted are these: DTIC 120 mg per kg, 4 cycles, FIG. 18. Here is the method:
as §3
(In western blotting, separated proteins are transferred to a membrane and probed.)

Data set [8] relates to GST activity in AML12 cells. The data set is described as follows: GST activity assay in AML12 cells. Format: cell-based, mouse. Conditions: 24 and 48 hours, 10 μM SFN, FIG. 4. The method, then:
The effects of SFN (10 μM), MIL-88A MOF loaded with SFN (denoted as MIL-88A-SFN, 10 μM SFN final concentration), or a corresponding amount of unloaded MIL-88A MOF on the GST activity in AML12 cells were measured at 12, 24, or 48 hours after the treatment. The GST activity assay was performed in the presence of glutathione and 1-chloro-2,4-dinitrobenzene (a GST substrate). Measurements were performed in quadruplicate.

The test system of data set [9] is GSTP1 and GSTA3 in B16F1 melanoma tumor tissues. The data set is described as follows: Western blot of GST expression in tumor tissues of mice bearing B16F1 tumor. Format: in vivo. Conditions: i.v., day 1 and day 2, FIG. 8B. The method, then: Mice bearing B16F1 tumor were intravenously administered with SFN or MIL-88A-SFN at a dose of 10 mg SFN per kg animal, through the tail vein in groups of eight. The expression levels of GSTP1 and GSTA3 in the liver and tumor tissues were measured by western blot at 24 and 48 h following the intravenous administration. Tissues from the groups of mice treated with PBS or MIL-88A were also analyzed.

Data set [10] deals with GSTP1, GSTA3 and NQO1 in AML12 cells. Conditions: 10 μM SFN, FIG. 3.
Experimental: To validate the protective effect of SFN on a mouse hepatocyte cell line AML12, the expression levels of two glutathione-S-transferase (GST) isoforms, P1 and A3 (denoted as GSTP1 and GSTA3, respectively) and NAD(P)H:quinone oxidoreductase (NQO1), were quantified using western blot analysis after incubating the AML12 cells with SFN for 12, 24, and 36 hours. Beta-actin was used as a loading control.
Setting [11] is: pretreatment then 10 μM DOX 24 h.

Regarding `COc1cccc2c1C(=O)c1c(O)c3c(c(O)c1C2=O)C[C@@](O)(C(=O)CO)C[C@@H]3O[C@H]1C[C@H](N)[C@H](O)[C@H](C)O1` [DOX, doxorubicin], the cell survival rate entry in the data set with AML12 cells (10 μM DOX alone 24 h) is recorded as “lowest survival rate”. Besides, the caspase activity entry in data set [1] (10 μM DOX alone 24 h) was “highest caspase activity”. In data set [2] (10 μM DOX 24 h), the “level of CYP1A1/CYP1B1” value is recorded as “induced an increase”. Further, in the data set on B16F1 tumor, the tumor volume result is “lower tumor volumes up to at least 9 days”. In addition, in data set [3] (DOX 10 mg per kg i.v., FIG. 10), the “ALT activity in blood serum” value is on record as “induced an upregulation”. The “caspase activity in the liver tissues” value in data set [4] (DOX 10 mg per kg i.v., FIG. 11) is “induced an upregulation”. The “CYP1A/CYP1B activity in the liver tissues” value in data set [5] (DOX 10 mg per kg i.v., FIG. 12) was “induced an upregulation”. Also, the “liver morphology (hepatotoxicity)” value in the data set on liver tissues (DOX 10 mg per kg i.v.) is “induced moderate cholestasis, focal necrosis, and mononuclear infiltration of sinusoids”.

Consider `CN(C)/N=N/c1[nH]cnc1C(N)=O` [DTIC, dacarbazine], for which, in data set [6], the “ALT activity in blood serum” value was “induced an upregulation”. Also, in the data set on bilirubin in blood serum, the “bilirubin concentration in blood serum” value is “induced an upregulation”. Besides, in [7], the “caspase 3 activation in liver tissues” value was “induced caspase 3 activation”.

Turning to `C[S+]([O-])CCCCN=C=S` (stereo not shown) [SFN, sulforaphane], the GST activity result in [8] was “equaled the GST activity in the cells treated with SFN-loaded MIL-88A”. Also, the “apoptosis / cell survival after pretreatment” value in the data set with AML12 cells (setting [11]) was “significantly decreased apoptosis”. The “caspase activity after pretreatment” value in data set [1] (setting [11]) is reported as “significantly decreased”. Besides, the “DOX-induced upregulation of CYP1A1/CYP1B1 after pretreatment” value in data set [2] (setting [11]) is “suppressed the upregulation”. In addition, in data set [9], the “GST expression in B16F1 melanoma tumor tissues” value was “neither SFN nor MIL-88A-SFN strongly affected”. In addition, the “DOX-induced upregulation of ALT activity after pretreatment” value in [3] (3 mg SFN per kg day 0, DOX 10 mg per kg day 1, FIG. 10) was “attenuated the upregulation”. Further, in data set [4] (3 mg SFN per kg day 0, DOX 10 mg per kg day 1, FIG. 11), the “DOX-induced upregulation of liver caspase activity after pretreatment” value is “but not SFN, attenuated the upregulation”. The “DOX-induced upregulation of liver CYP1A/CYP1B activity after pretreatment” value in data set [5] (3 mg SFN per kg day 0, DOX 10 mg per kg day 1, FIG. 12) is “but not SFN, attenuated the upregulation”. Further, the “DOX-induced liver pathology after pretreatment” value in the data set with liver tissues (3 mg SFN per kg day 0, DOX 10 mg per kg day 1) is recorded as “attenuated the aforementioned symptoms of hepatotoxicity”. The “expression of phase 2 enzymes GSTP1 and GSTA3” value in data set [10] (24 h, vs untreated cells) was “upregulation”. Besides, the “expression of NQO1” value in [10] is given as “enhanced expression”.
